Measured values published in patent US7645781B2, “N-aryl-2-oxazolidinone-5-carboxamides and their derivatives” (Pfizer Inc, priority 2002, dated 2010).
In brackets after ≈: the same amount, converted by molar mass.

How the values were obtained:
[1] = test system: Staphylococcus aureus (SAUR 9213); test: MIC by standard agar dilution method; format: cell-based; conditions: Mueller Hinton agar, incubated overnight at 35° C., read-out: MIC
Procedure, shortened: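 Serial 2-fold compound dilutions in Mueller Hinton agar, spot-inoculated with approximately 10^4 to 10^5 cells from a 1:20-diluted 0.5 McFarland suspension in TSB. Incubated overnight at 35 °C; MIC (μg/ml) is the lowest concentration preventing visible growth.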

Compound	MIC [1] [µg/mL]	melting point
CNC(=O)[C@H]1CN(c2ccc(C3CCS(=O)(=O)CC3)c(F)c2)C(=O)O1 [Example 41, (5R)-(−)-N-Methyl-3-[4-(Tetrahydro-2H-thiopyran-4-yl)-3-fluorophenyl]-2-oxo-5-oxazolidinecarboxamide S,S-dioxide]	2 (≈ 5.4 µM)	180.5 to 182 °C
NC(=O)[C@H]1CN(c2cc(F)c([C@H]3CC[S@@+]([O-])CC3)c(F)c2)C(=O)O1 [Example 46, (5R)-(−)-3-[3,5-Difluoro-4-(cis-tetrahydro-1-oxido-2H-thiopyran-4-yl)phenyl]-2-oxo-5-oxazolidinecarboxamide]	8 (≈ 22.3 µM)	283 to 285 °C (dec.)
